From patent US5677419A, “Cyclic vasoactive peptide analogs” (Hoffmann-La Roche Inc., priority 1994, dated 1997)
pEC50: −log10 of the molar value. Where a SMILES comes first, the peptide text is derived from it. Bridges are numbered along the chain shown (N, C = ends). [ ]: non-standard residue; d: D form. Tyr(3-OMe) = COc1cc(C[C@H](N)C(=O)O)ccc1O; Phe(4-F) = N[C@@H](Cc1ccc(F)cc1)C(=O)O; NMeA = CN[C@@H](C)C(=O)O; Nle = CCCC[C@H](N)C(=O)O

Columns and labels:
[1] = system: guinea pig tracheal smooth muscle; test: Tracheal relaxant activity of VIP analogs on isolated guinea pig tracheal rings; format: cell-based; conditions: cumulative concentration response, relaxation as % of maximum response to VIP (10^-6 M=100%), three tissues pooled, linear regression
Procedure, shortened: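 Male guinea pig tracheal rings under 1.5 g resting tension in Krebs at 37° C, 95% O2/5% CO2, isometric tension. Cumulative concentration-response curves; relaxation as % of response to 10^-6 M VIP added at end; three tissues pooled, EC50 by linear regression.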

guinea pigs = test: In vivo bronchodilator activity by tracheal instillation against histamine challenge; design: species or system guinea pig; conditions: anesthetized male guinea pigs, inhibition of histamine (i.v.)-induced rise in tracheal pressure
Procedure, shortened: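 Urethane-anaesthetised male Hartley guinea pigs (400-600 g) received compound in water by intratracheal instillation, then were paralysed, ventilated and challenged with histamine […] i.v. Tracheal pressure change gave % inhibition (≥3 animals/group); ED50 from log dose-response; duration as time until inhibition fell to 40%.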

CCCC[C@H](NC(=O)[C@H](CCC(N)=O)NC(=O)[C@H](CCCCN)NC(=O)[C@H](CCCNC(=N)N)NC(=O)[C@H](CC(C)C)NC(=O)[C@H](CCCCN)NC(=O)[C@@H](NC(=O)[C@H](Cc1ccc(O)cc1)NC(=O)[C@H](CC(N)=O)NC(=O)[C@H](CC(=O)O)NC(=O)[C@@H](NC(=O)[C@H](Cc1ccccc1)NC(=O)[C@@H](NC(=O)[C@H](C)NC(=O)[C@H](CC(=O)O)NC(=O)[C@H](C)NC(=O)[C@H](Cc1c[nH]cn1)NC(C)=O)C(C)C)[C@@H](C)O)[C@@H](C)O)C(=O)N[C@@H](C)C(=O)N[C@@H](C)C(=O)N[C@@H](CCCCN)C(=O)N[C@H]1CCCCNC(=O)C[C@@H](C(=O)N[C@H](C(=O)N[C@@H](CC(C)C)C(=O)N[C@H](C(N)=O)[C@@H](C)O)C(C)C)NC(=O)[C@H](CC(N)=O)NC(=O)[C@H](CC(C)C)NC(=O)[C@H](Cc2ccc(O)cc2)NC1=O [SEQ ID NO:33, Ac-[Ala^2,Lys^12,Nle^17,Ala^19,Asp^25,Val^26,Thr^28]-VIP cyclo (Lys^21 →Asp^25)] (Ac-HADAVFTDNYTKLRKQ[Nle]AAKKYLNDVLT-NH2; lactam 21-25)
pEC50 [1]: 8.92
Bronchodilator activity of VIP analogs in guinea pigs, ED50 (guinea pigs): 0.6 μg

CCCC[C@H](NC(=O)[C@H](CCC(N)=O)NC(=O)[C@H](CCCCN)NC(=O)[C@H](CCCNC(=N)N)NC(=O)[C@H](CC(C)C)NC(=O)[C@H](CCCCN)NC(=O)[C@@H](NC(=O)[C@H](Cc1ccc(O)cc1)NC(=O)[C@H](CC(N)=O)NC(=O)[C@H](CC(=O)O)NC(=O)[C@@H](NC(=O)[C@H](Cc1ccccc1)NC(=O)[C@@H](NC(=O)[C@H](C)NC(=O)[C@H](CC(=O)O)NC(=O)[C@H](CO)NC(=O)[C@H](C)N(C)C(C)=O)C(C)C)[C@@H](C)O)[C@@H](C)O)C(=O)N[C@@H](C)C(=O)N[C@@H](C)C(=O)N[C@@H](CCCCN)C(=O)N[C@H]1CCCCNC(=O)C[C@@H](C(=O)N[C@@H](CC(C)C)C(=O)N[C@@H](CCCCN)C(=O)N[C@@H](CCCCN)C(N)=O)NC(=O)[C@H](CC(N)=O)NC(=O)[C@H](CC(C)C)NC(=O)[C@H](Cc2ccc(O)cc2)NC1=O [SEQ ID NO:39, Ac-[N-Me-Ala^1,Lys^12,Nle^17,Ala^19,Asp^25,Leu^26,Lys^27,28]-VIP cyclo (Lys^21 →Asp^25)] (Ac-[NMeA]SDAVFTDNYTKLRKQ[Nle]AAKKYLNDLKK-NH2; lactam 21-25)
pEC50 [1]: 9.02
Bronchodilator activity of VIP analogs in guinea pigs, ED50 (guinea pigs): 0.06 μg

CCCC[C@H](NC(=O)[C@H](CCC(N)=O)NC(=O)[C@H](CCCCN)NC(=O)[C@H](CCCNC(=N)N)NC(=O)[C@H](CC(C)C)NC(=O)[C@H](CCCCN)NC(=O)[C@@H](NC(=O)[C@H](Cc1ccc(O)cc1)NC(=O)[C@H](CC(N)=O)NC(=O)[C@H](CCC(=O)O)NC(=O)[C@@H](NC(=O)[C@H](Cc1ccccc1)NC(=O)[C@@H](NC(=O)[C@H](C)NC(=O)[C@H](CC(=O)O)NC(=O)[C@H](CO)NC(=O)[C@H](C)N(C)C(C)=O)C(C)C)[C@@H](C)O)[C@@H](C)O)C(=O)N[C@@H](C)C(=O)N[C@@H](C)C(=O)N[C@@H](CCCCN)C(=O)N[C@H]1CCCCNC(=O)C[C@@H](C(=O)N[C@@H](CC(C)C)C(=O)N[C@@H](CCCCN)C(=O)N[C@@H](CCCCN)C(N)=O)NC(=O)[C@H](CC(N)=O)NC(=O)[C@H](CC(C)C)NC(=O)[C@H](Cc2ccc(O)cc2)NC1=O [SEQ ID NO:44, Ac-[N-Me-Ala^1,Glu^8,Lys^12,Nle^17,Ala^19,Asp^25,Leu^26,Lys^27,28]-VIP cyclo (Lys^21 →Asp^25)] (Ac-[NMeA]SDAVFTENYTKLRKQ[Nle]AAKKYLNDLKK-NH2; lactam 21-25)
pEC50 [1]: 9.44
Bronchodilator activity of VIP analogs in guinea pigs, ED50 (guinea pigs): 0.097 μg

CCCC[C@H](NC(=O)[C@H](CCC(N)=O)NC(=O)[C@H](CCCCN)NC(=O)[C@H](CCCNC(=N)N)NC(=O)[C@H](CC(C)C)NC(=O)[C@H](CCCCN)NC(=O)[C@@H](NC(=O)[C@H](Cc1ccc(O)cc1)NC(=O)[C@H](CC(N)=O)NC(=O)[C@H](CC(=O)O)NC(=O)[C@@H](NC(=O)[C@H](Cc1ccccc1)NC(=O)[C@@H](NC(=O)[C@H](C)NC(=O)[C@H](CC(=O)O)NC(=O)[C@H](CO)NC(=O)[C@H](Cc1c[nH]cn1)NC(C)=O)C(C)C)[C@@H](C)O)[C@@H](C)O)C(=O)N[C@@H](C)C(=O)N[C@@H](C)C(=O)N[C@@H](CCCCN)C(=O)N[C@H]1CCCCNC(=O)C[C@@H](C(=O)N[C@@H](CC(C)C)C(=O)N[C@@H](CCCCN)C(=O)N[C@@H](CCCCN)C(N)=O)NC(=O)[C@H](CC(N)=O)NC(=O)[C@H](CC(C)C)NC(=O)[C@H](Cc2ccc(O)cc2)NC1=O [SEQ ID NO:38, Ac-[Lys^12,Nle^17,Ala^19,Asp^25,Leu^26,Lys^27,28]-VIP cyclo (Lys^21 →Asp^25)] (Ac-HSDAVFTDNYTKLRKQ[Nle]AAKKYLNDLKK-NH2; lactam 21-25)
pEC50 [1]: 9.89
Bronchodilator activity of VIP analogs in guinea pigs, ED50 (guinea pigs): 0.09 μg

CCCC[C@H](NC(=O)[C@H](CCC(N)=O)NC(=O)[C@H](CCCCN)NC(=O)[C@H](CCCNC(=N)N)NC(=O)[C@H](CC(C)C)NC(=O)[C@H](CCCCN)NC(=O)[C@@H](NC(=O)[C@H](Cc1ccc(O)cc1)NC(=O)[C@H](CC(N)=O)NC(=O)[C@H](CC(=O)O)NC(=O)[C@@H](NC(=O)[C@H](Cc1ccccc1)NC(=O)[C@@H](NC(=O)[C@H](C)NC(=O)[C@H](CC(=O)O)NC(=O)[C@H](CO)NC(=O)[C@H](Cc1c[nH]cn1)NC(C)=O)C(C)C)[C@@H](C)O)[C@@H](C)O)C(=O)N[C@@H](C)C(=O)N[C@H](C(=O)N[C@@H](CCCCN)C(=O)N[C@H]1CCCCNC(=O)C[C@@H](C(=O)N[C@H](C(=O)N[C@@H](CC(C)C)C(=O)N[C@H](C(N)=O)[C@@H](C)O)C(C)C)NC(=O)[C@H](CC(N)=O)NC(=O)[C@H](CC(C)C)NC(=O)[C@H](Cc2ccc(O)cc2)NC1=O)C(C)C [SEQ ID NO:28, Ac-[Lys^12,Nle^17,Asp^25,Val^26,Thr^28]-VIP cyclo (Lys^21 →Asp^25)] (Ac-HSDAVFTDNYTKLRKQ[Nle]AVKKYLNDVLT-NH2; lactam 21-25)
pEC50 [1]: 8.51
Bronchodilator activity of VIP analogs in guinea pigs, ED50 (guinea pigs): 1.2 μg

CCCC[C@H](NC(=O)[C@H](CCC(N)=O)NC(=O)[C@H](CCCCN)NC(=O)[C@H](CCCNC(=N)N)NC(=O)[C@H](CC(C)C)NC(=O)[C@H](CCCCN)NC(=O)[C@@H](NC(=O)[C@H](Cc1ccc(O)cc1)NC(=O)[C@H](CC(N)=O)NC(=O)[C@H](CCC(=O)O)NC(=O)[C@@H](NC(=O)[C@H](Cc1ccc(F)cc1)NC(=O)[C@@H](NC(=O)[C@H](C)NC(=O)[C@H](CC(=O)O)NC(=O)[C@H](CO)NC(=O)[C@H](Cc1c[nH]cn1)NC(C)=O)C(C)C)[C@@H](C)O)[C@@H](C)O)C(=O)N[C@@H](C)C(=O)N[C@@H](C)C(=O)N[C@@H](CCCCN)C(=O)N[C@H]1CCCCNC(=O)C[C@@H](C(=O)N[C@@H](CC(C)C)C(=O)N[C@@H](CCCCN)C(=O)N[C@@H](CCCCN)C(N)=O)NC(=O)[C@H](CC(N)=O)NC(=O)[C@H](CC(C)C)NC(=O)[C@H](Cc2ccc(O)cc2)NC1=O [SEQ ID NO:45, Ac-[p-F-Phe^6,Glu^8,Lys^12,Nle^17,Ala^19,Asp^25,Leu^26,Lys^27,28]-VIP cyclo (Lys^21 →Asp^25)] (Ac-HSDAV[Phe(4-F)]TENYTKLRKQ[Nle]AAKKYLNDLKK-NH2; lactam 21-25)
pEC50 [1]: 9.33
Bronchodilator activity of VIP analogs in guinea pigs, ED50 (guinea pigs): 0.026 μg

CCCC[C@H](NC(=O)[C@H](CCC(N)=O)NC(=O)[C@H](CCCCN)NC(=O)[C@H](CCCNC(=N)N)NC(=O)[C@H](CC(C)C)NC(=O)[C@H](CCCCN)NC(=O)[C@@H](NC(=O)[C@H](Cc1ccc(O)cc1)NC(=O)[C@H](CC(N)=O)NC(=O)[C@H](CCC(=O)O)NC(=O)[C@@H](NC(=O)[C@H](Cc1ccccc1)NC(=O)[C@@H](NC(=O)[C@H](C)NC(=O)[C@H](CC(=O)O)NC(=O)[C@H](C)NC(=O)[C@H](Cc1c[nH]cn1)NC(C)=O)C(C)C)[C@@H](C)O)[C@@H](C)O)C(=O)N[C@@H](C)C(=O)N[C@@H](C)C(=O)N[C@@H](CCCCN)C(=O)N[C@H]1CCCCNC(=O)C[C@@H](C(=O)N[C@@H](CC(C)C)C(=O)N[C@@H](CCCCN)C(=O)N[C@@H](CCCCN)C(=O)N[C@@H](C)C(=O)N[C@@H](C)C(=O)N[C@@H](C)C(N)=O)NC(=O)[C@H](CC(N)=O)NC(=O)[C@H](CC(C)C)NC(=O)[C@H](Cc2ccc(O)cc2)NC1=O [SEQ ID NO:43, Ac-[Ala^2,Glu^8,Lys^12,Nle^17,Ala^19,Asp^25,Leu^26,Lys^27,28,Ala^29-31]-VIP cyclo (Lys^21 →Asp^25)] (Ac-HADAVFTENYTKLRKQ[Nle]AAKKYLNDLKKAAA-NH2; lactam 21-25)
pEC50 [1]: 9.26
Bronchodilator activity of VIP analogs in guinea pigs, ED50 (guinea pigs): 0.14 μg

CCCC[C@H](NC(=O)[C@H](CCC(N)=O)NC(=O)[C@H](CCCCN)NC(=O)[C@H](CCCNC(=N)N)NC(=O)[C@H](CC(C)C)NC(=O)[C@H](CCCCN)NC(=O)[C@@H](NC(=O)[C@H](Cc1ccc(O)cc1)NC(=O)[C@H](CC(N)=O)NC(=O)[C@H](CCC(=O)O)NC(=O)[C@@H](NC(=O)[C@H](Cc1ccccc1)NC(=O)[C@@H](NC(=O)[C@H](C)NC(=O)[C@H](CC(=O)O)NC(=O)[C@H](CO)NC(=O)[C@H](Cc1c[nH]cn1)NC(C)=O)C(C)C)[C@@H](C)O)[C@@H](C)O)C(=O)N[C@@H](C)C(=O)N[C@@H](C)C(=O)N[C@@H](CCCCN)C(=O)N[C@H]1CCCCNC(=O)C[C@@H](C(=O)N[C@@H](CC(C)C)C(=O)N[C@@H](CCCCN)C(=O)N[C@@H](CCCCN)C(N)=O)NC(=O)[C@H](CC(N)=O)NC(=O)[C@H](CC(C)C)NC(=O)[C@H](Cc2ccc(O)c(OC)c2)NC1=O [SEQ ID NO:57, Ac-[Glu^8,Lys^12,Nle^17,Ala^19,m-OCH3 -Tyr^22,Asp^25,Leu^26,Lys^27,28]-VIP cyclo (Lys^21 →Asp^25)] (Ac-HSDAVFTENYTKLRKQ[Nle]AAKK[Tyr(3-OMe)]LNDLKK-NH2; lactam 21-25)
pEC50 [1]: 9.54
Bronchodilator activity of VIP analogs in guinea pigs, ED50 (guinea pigs): 0.019 μg
